As a reminder, the IC50 is the concentration at which inhibition is half-maximal.

From patent publication US20110059186A1, “CANCER STEM CELL-TARGETED AND DRUG RESISTANT CANCER THERAPY” (KOMINOX USA, INC., priority 2009, published 2011) come the findings set out here.

Common to all, as to type: cell-based, human
Assay [1] has as its system DU145/Pac200 (paclitaxel resistant) cells. Nature of the assay: MTT proliferation assay, DU145/Pac200. Here is the method:
(§1) Cell Lines: DU145 wt, DU145/Pac200 and DU145/Doc50 cells were provided by Dr. Hussain, UMGCC, University of Maryland. The cell lines were cultured as recommended; in 1:1 DMEM/F12 media (Invitrogen) supplemented with 5% FBS, 1% antibiotics and grown under standard conditions at 37° C. and 5% CO2. Paclitaxel and docetaxel resistant clones were kept under selection pressure of the drugs.
(§2) MTT Proliferation Assay: Exponentially growing cells were harvested and plated in 96-well plates (1,500/well for DU145 wt, and 2,000-3,000/well for DU145/Pac200 and DU145/Doc50). Drugs being tested were added at concentrations ranging from 0.01 μM to 100 μM to asses their growth inhibitory potential. After 5 days of continuous exposure to drug, the vital dye 3-(4,5-dimethylthiazol-2-yl)-2,5-diphenyltetrazoliumbromide (MTT) was added to the plates. The conversion of MTT to purple formazan by viable cells was measured using a Synergy2 plate reader at 550 nm and Gen5 software. Growth curves were generated using Microsoft Excel and growth inhibitory concentration 50 (IC50) and 100% were determined.

In assay [2] the test system is DU145/Doc50 (docetaxel resistant) cells. Kind of assay: MTT proliferation assay, DU145/Doc50. On the procedure:
as §1, §2
Background: Tetrazolium dyes change colour on reduction, which living cells bring about.

For the next assay, the system named is DU145 wt cells. Nature of the assay: MTT proliferation assay, DU145 wt. Here is the method:
as §1, §2

Assay [3] relates to side population of DU145 cells.
In assay [4] the test system is side population of DU145/Pac200 cells.
Assay [5] concerns side population of LAPC-4 cells. On the procedure: (§3) Three samples were analyzed each time. Of the samples one was treated with DCV only, another was treated with DCV and 50 μM Verapamil (PgP inhibitor), and the last was treated with DCV and 10 μM Fumitremorgin C (FTC, BCRP inhibitor). The samples were then read and analyzed using flow cytometry.
(§4) Flow Cytometry: Samples were read on a BDLSR II flow cytometer. […] Detectors at 450/50 (blue) and 680/30 (red) intercepted the emitted wavelength and plotted the data on the scatter plot accordingly. CD44 and Pgp staining was performed using PE (Pgp) or APC (CD44) labeled antibodies and their isotype controls following routine procedures for epitope labeling.
(§5) Each of the prostate cell lines was analyzed for the existence of a cancer stem-like cell fraction using DCV side population analysis. […] The occurrence of a SP is based on the expression of drug efflux pumps such as P-glycoprotein or BCRP, which are responsible for preventing standard cytotoxic therapy from working. […] Because the hormone therapies, e.g., androgen synthesis inhibitors, are not substrates of drug efflux pumps, these findings are not surprising.

Assay [6] deals with side population of LnCaP/C81 cells. On the procedure: as §3, §4, §5
Assay [7] relates to side population of LnCaP cells. On the procedure: as §3, §4, §5
Assay [8] concerns side population of LAPC-4/CSS100 cells. On the procedure:
as §3, §4, §5

Assay [9] relates to side population of DU145/Doc50 cells. Here is the method:
as §3, §4, §5

For the next assay, the system named is LAPC-4/CSS100 cells. To be noted: read-out: IC50 KML001.
A further assay relates to LnCaP cells. Particulars: read-out: IC50 KML001.
The next assay deals with LAPC-4 cells. To be noted: read-out: IC50 KML001.
A further assay has as its system hTERT transcript.
Assay [10] relates to Pgp positive cell population of taxane-resistant prostate cancer cell lines. Kind of assay: Pgp surface expression by flow cytometry. To be noted: treatment at IC50 for 72 hours. Here is the method: Flow Cytometry: Samples were read on a BDLSR II flow cytometer. A […] violet laser excited the DCV dye producing varying wavelengths based on cell differentiation. Detectors at 450/50 (blue) and 680/30 (red) intercepted the emitted wavelength and plotted the data on the scatter plot accordingly. CD44 and Pgp staining was performed using PE (Pgp) or APC (CD44) labeled antibodies and their isotype controls following routine procedures for epitope labeling.
The drug efflux pump (Pgp) is functionally expressed (at the membrane) in the majority of cells in the taxane-resistant prostate cancer cell lines, which is expected since the SP of those cell lines was suppressible with the drug efflux pump inhibitor verapamil. Treatment with KML001 at IC50 for 72 hours reduced the Pgp positive cell population, which corroborates the results of the clonogenic and SP assay.
A general note: A flow cytometer gives signals particle by particle.

In assay [11] the test system is prostate cancer cell lines (taxane-resistant, androgen resistant and parental). Kind of assay: MTT assay across the panel of prostate cancer cell lines. On the procedure: as §2
Taxane resistant cell lines DU145/Pac200 (highly pacitaxel resistant) and DU145/Doc50 (highly docetaxel resistant) together with the parental cell line DU145 as well as the androgen resistant cancer cell lines (LNCaP/C81 and LAPC-4/CSS100) and their corresponding hormone responsive parental cell lines (LNCaP and LAPC-4) were tested for their response to sodium meta arsenite.
The cancer cell lines that were resistant to paclixel and docetaxel were tested using a well-established tumor clonigenic stem cell assay for their response to KML001. (FIG. 6) The assay allows only the cancer stem cell population to grow in a soft agar matrix owing to their self-renewal capability. […]

The next assay has as its system LnCaP/C81 cells. To be noted: read-out: IC50 KML001.
Assay [12] concerns DU145 cancer stem cell population. Particulars: read-out: IC50, colony forming capability.
Assay [13] deals with DU145/Pac200 cancer stem cell population. To be noted: read-out: IC50, colony forming capability.
[14] abbreviates: DU145/Pac200 relative to DU145 wt.
Setting [15] is: Du145 Doc50 relative to DU145 wt.

Molecules are shown by their SMILES. Where two headings read alike, the source gives them in different places.

As for `CC(=O)O[C@@]12CO[C@@H]1C[C@H](O)[C@@]1(C)C(=O)[C@H](O)C3=C(C)[C@@H](OC(=O)[C@H](O)[C@@H](NC(=O)OC(C)(C)C)c4ccccc4)C[C@@](O)([C@@H](OC(=O)c4ccccc4)[C@H]21)C3(C)C` [Docetaxel], the “Docetaxel Resistance (fold)” value in assay [1] (setting [14]) was 400 fold; in assay [2] (setting [15]), 2000 fold; in the assay with DU145 wt cells (DU145 wt (reference line)), 1 fold. For the same molecule, the IC50 in assay [1] (Homo sapiens, DU-145, DU145/Pac200, read-out: Docetaxel IC50) came out at 0.2 µM; in assay [2] (Homo sapiens, DU-145, Du145 Doc50, read-out: Docetaxel IC50), 1 µM; with DU145 wt cells (Homo sapiens, DU-145, DU145 wt, read-out: Docetaxel IC50) it was 0.0005 µM.
As to `COc1ccc2c3c([nH]c2c1)[C@H](C=C(C)C)N1C(=O)[C@@H]2CCCN2C(=O)[C@@H]1C3` [FTC, Fumitremorgin C], the “SP % with FTC” value in assay [3] (DU145, DCV with 10 μM FTC, SP 1.04 % without inhibitor) turned out to be 0.06%; in [4] (DU145/Pac200, DCV with 10 μM FTC, SP 55 % without inhibitor), 56.5%; in assay [5] (LAPC-4, DCV with 10 μM FTC, SP 1.54 % without inhibitor) it was 2.24%; in assay [6] (LnCaP/C81, DCV with 10 μM FTC, SP 0.16 % without inhibitor), 0.11%; in assay [7] (LnCaP, DCV with 10 μM FTC, SP 0.66 % without inhibitor) it was 0.04%; in assay [8] (LAPC-4/CSS100, DCV with 10 μM FTC, SP 0.36 % without inhibitor) it was 0.30%. In [9] (DU145/Doc50, DCV with 10 μM FTC, SP 40.3 % without inhibitor), the “SP % with FTC” value is 18.35%. Also, the “inhibition of SP by efflux pump inhibitor” value in assay [4] (Pac resistant DU145 cells) and in [9] (Doc resistant DU145 cells) was “not” throughout. In addition, the “suppression of SP by efflux pump inhibitor” value in [5] (LAPC-4), in assay [6] (LnCaP/C81), in [7] (LnCaP parental line) and in [8] (hormone resistant derivative of LAPC-4) was “suppressible” in each case.
As for `O=[As][O-].[Na+]` [KML001, sodium meta arsenite], the IC50 in the assay with LAPC-4/CSS100 cells is 3 µM; in the assay on LnCaP cells, 4 µM; in assay [1] (DU145/Pac200, MTT, 5 days continuous exposure, read-out: IC50 KML001) it was 6 µM; in [2] (DU145/Doc50, MTT, 5 days continuous exposure, read-out: IC50 KML001), 5 µM; with LAPC-4 cells it was 4 µM; in assay [11] (taxane-resistant, androgen resistant and hormone responsive parental lines, read-out: IC50's across all prostate cancer cell lines) it was 1 to 6 µM. In addition, the IC50 was 1 µM in the assay with LnCaP/C81 cells, 4 µM with DU145 wt cells (read-out: IC50 KML001), 6 µM in [12] and 6 µM in assay [13]. In addition, the “growth inhibition” value in [1] (DU145/Pac200, MTT) is recorded as “marked inhibition of growth”; in assay [2] (DU145/Doc50, MTT), “marked inhibition of growth”; with DU145 wt cells it was “marked inhibition of growth”. The “effect on mature (non-SP) cells after pretreatment” value in [3] and in [4] was “also eradicated” in each case. Moreover, the “effect on side population (SP) after pretreatment” value in assay [3] and in assay [4] was “drastically reducing the SP” in each case. Moreover, the “hTERT transcript level” value in the assay with hTERT transcript was “significantly decreases”. Moreover, in assay [10], the “Pgp positive cell population” value is listed as “reduced”. In addition, the “sensitivity of resistant versus parental cell lines” value in assay [11] (growth curves from standard MTT assays) is “equally effective”. In addition, the IC100 concentration with DU145 wt cells is 13 µM.
For `CC(=O)O[C@H]1C(=O)[C@@]2(C)[C@H]([C@H](OC(=O)c3ccccc3)[C@]3(O)C[C@H](OC(=O)[C@H](O)[C@@H](NC(=O)c4ccccc4)c4ccccc4)C(C)=C1C3(C)C)[C@]1(OC(C)=O)CO[C@@H]1C[C@@H]2O` [Paclitaxel], the “Paclitaxel Resistance (fold)” value stood at 140 fold in assay [1] (setting [14]), 400 fold in [2] (setting [15]) and 1 fold in the assay on DU145 wt cells (DU145 wt (reference line)). Besides, the IC50 in [1] (Homo sapiens, DU-145, DU145/Pac200, read-out: Paclitaxel IC50) was found to be 0.35 µM; in [2] (Homo sapiens, DU-145, Du145 Doc50, read-out: Paclitaxel IC50), 1 µM; with DU145 wt cells (Homo sapiens, DU-145, DU145 wt, read-out: Paclitaxel IC50) it was 0.0025 µM.
Turning to `COc1ccc(CCN(C)CCCC(C#N)(c2ccc(OC)c(OC)c2)C(C)C)cc1OC` (stereo not shown) [Verapamil], the “SP % with Verapamil” value in assay [3] (DU145, DCV with 50 μM Verapamil, SP 1.04 % without inhibitor) is 0.16%; in assay [4] it was 0.07%; in assay [5], 1.63%; in assay [6], 0.07%; in assay [7], 0.12%; in assay [8], 0.19%. In [9], the “SP % with Verapamil” value came out at 1.35%.
As for `N.N.[Cl][Pt][Cl]` [cisplatin], the IC50 in [1] (DU145/Pac200, standard MTT, read-out: IC50 of cisplatin) is 3 µM; in the assay with DU145 wt cells (DU145 parental, standard MTT, read-out: IC50 of cisplatin), 4 µM.
